The nature of the series: plasma concentration of itraconazole required for clinical benefit in humans with cancer. It is filed as in vivo. To be noted: human, after 4 weeks of therapy, read-out: minimum plasma trough level required to have a clinically significant effect. As to the method: Optionally, the treatment method further comprises measuring the plasma level of the HhP inhibitor, or a metabolite thereof, in the subject one or more times. In some embodiments, the measuring is carried out one or more times about 4 weeks after initiation of treatment with the HhP inhibitor. Observations concerning the desirability of achieving a plasma trough level of at least about 1,000 ng/mL of the HhP inhibitor are described in U.S. Pat. No. 9,192,609 (“Treatment and Prognostic Monitoring of Proliferation Disorders Using Hedgehog Pathway Inhibitors”; Virca and O'Donnell), which is incorporated herein by reference in its entirety.
In particular, the minimum plasma trough level after 4 weeks of therapy required to have a clinically significant effect was at least 1000 ng/ml. […] Nevertheless, there can be side-effects peculiar to such high doses such as hypertension, peripheral edema, and hypokalemia, which seem to be a result of an increased production of mineralocorticoid. These side effects associated with these high doses of itraconazole can be effectively managed by giving a selective mineralocorticoid antagonist, such as eplerenone. Accordingly, in some embodiments, the method further comprises administering eplerenone or other mineralocorticoid inhibitor. […]

The structures appear in SMILES notation.

Consider `CCC(C)n1ncn(-c2ccc(N3CCN(c4ccc(OCC5COC(Cn6cncn6)(c6ccc(Cl)cc6Cl)O5)cc4)CC3)cc2)c1=O` (stereo not shown) [itraconazole], for which the concentration at 4 weeks is ≥ 1000 ng/mL.
